Experiments:
Experiment in all cases: Z'-LYTE kinase panel
Format in all cases: biochemical
[1] = biological target: T1, CSNK1A1 (CK1 alpha 1) (Homo sapiens, UniProt P48729)
T1 construct: purchased ThermoFisher (SelectScreen, Z'-LYTE)
Outline: (§1)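 Screened at 10 µM against a 225-kinase panel; the Z′-LYTE standard assay gave percentage inhibition values.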

[2] = biological target: T2, RPS6KA6 (RSK4) (Homo sapiens, UniProt Q9UK32)
T2 construct: purchased ThermoFisher (SelectScreen, Z'-LYTE)
Outline: as §1

[3] = biological target: T3, PRKG2 (PKG2) (Homo sapiens, UniProt Q13237)
T3 construct: purchased ThermoFisher (SelectScreen, Z'-LYTE)
T3 sequence (Q13237 1-762): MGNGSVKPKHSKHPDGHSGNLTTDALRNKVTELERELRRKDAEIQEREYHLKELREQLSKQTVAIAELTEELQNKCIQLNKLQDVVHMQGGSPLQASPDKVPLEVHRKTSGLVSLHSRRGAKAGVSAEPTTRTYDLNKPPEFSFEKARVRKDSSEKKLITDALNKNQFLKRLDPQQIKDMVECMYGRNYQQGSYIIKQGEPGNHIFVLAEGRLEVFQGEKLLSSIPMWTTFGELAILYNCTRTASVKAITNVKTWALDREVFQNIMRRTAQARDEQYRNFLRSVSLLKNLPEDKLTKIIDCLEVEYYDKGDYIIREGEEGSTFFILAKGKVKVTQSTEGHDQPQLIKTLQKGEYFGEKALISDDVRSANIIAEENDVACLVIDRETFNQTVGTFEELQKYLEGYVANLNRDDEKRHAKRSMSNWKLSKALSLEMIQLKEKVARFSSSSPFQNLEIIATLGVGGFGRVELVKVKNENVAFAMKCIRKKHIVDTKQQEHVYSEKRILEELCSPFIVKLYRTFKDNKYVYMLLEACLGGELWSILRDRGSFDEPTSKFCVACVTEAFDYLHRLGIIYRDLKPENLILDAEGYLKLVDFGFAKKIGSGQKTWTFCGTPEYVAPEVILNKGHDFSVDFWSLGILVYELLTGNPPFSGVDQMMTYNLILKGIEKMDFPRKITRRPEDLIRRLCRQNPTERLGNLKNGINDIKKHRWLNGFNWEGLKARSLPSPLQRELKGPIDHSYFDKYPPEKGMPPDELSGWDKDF
Outline: as §1

[4] = biological target: T4, MAP2K1 (MEK1) (Homo sapiens, UniProt Q02750); conditions: 10 µM compound; ATP 100
T4 construct: purchased ThermoFisher (SelectScreen, Z'-LYTE)
Outline: as §1

[5] = biological target: T5, RPS6KA4 (MSK2) (Homo sapiens, UniProt O75676)
T5 construct: purchased ThermoFisher (SelectScreen, Z'-LYTE)
Outline: as §1

[6] = biological target: T6, GRK6 (Homo sapiens, UniProt P43250)
T6 construct: purchased ThermoFisher (SelectScreen, Z'-LYTE)
Outline: as §1

[7] = biological target: T7, JAK3 (Homo sapiens, UniProt P52333)
T7 construct: purchased ThermoFisher (SelectScreen, Z'-LYTE)
T7 sequence (P52333 1-1124): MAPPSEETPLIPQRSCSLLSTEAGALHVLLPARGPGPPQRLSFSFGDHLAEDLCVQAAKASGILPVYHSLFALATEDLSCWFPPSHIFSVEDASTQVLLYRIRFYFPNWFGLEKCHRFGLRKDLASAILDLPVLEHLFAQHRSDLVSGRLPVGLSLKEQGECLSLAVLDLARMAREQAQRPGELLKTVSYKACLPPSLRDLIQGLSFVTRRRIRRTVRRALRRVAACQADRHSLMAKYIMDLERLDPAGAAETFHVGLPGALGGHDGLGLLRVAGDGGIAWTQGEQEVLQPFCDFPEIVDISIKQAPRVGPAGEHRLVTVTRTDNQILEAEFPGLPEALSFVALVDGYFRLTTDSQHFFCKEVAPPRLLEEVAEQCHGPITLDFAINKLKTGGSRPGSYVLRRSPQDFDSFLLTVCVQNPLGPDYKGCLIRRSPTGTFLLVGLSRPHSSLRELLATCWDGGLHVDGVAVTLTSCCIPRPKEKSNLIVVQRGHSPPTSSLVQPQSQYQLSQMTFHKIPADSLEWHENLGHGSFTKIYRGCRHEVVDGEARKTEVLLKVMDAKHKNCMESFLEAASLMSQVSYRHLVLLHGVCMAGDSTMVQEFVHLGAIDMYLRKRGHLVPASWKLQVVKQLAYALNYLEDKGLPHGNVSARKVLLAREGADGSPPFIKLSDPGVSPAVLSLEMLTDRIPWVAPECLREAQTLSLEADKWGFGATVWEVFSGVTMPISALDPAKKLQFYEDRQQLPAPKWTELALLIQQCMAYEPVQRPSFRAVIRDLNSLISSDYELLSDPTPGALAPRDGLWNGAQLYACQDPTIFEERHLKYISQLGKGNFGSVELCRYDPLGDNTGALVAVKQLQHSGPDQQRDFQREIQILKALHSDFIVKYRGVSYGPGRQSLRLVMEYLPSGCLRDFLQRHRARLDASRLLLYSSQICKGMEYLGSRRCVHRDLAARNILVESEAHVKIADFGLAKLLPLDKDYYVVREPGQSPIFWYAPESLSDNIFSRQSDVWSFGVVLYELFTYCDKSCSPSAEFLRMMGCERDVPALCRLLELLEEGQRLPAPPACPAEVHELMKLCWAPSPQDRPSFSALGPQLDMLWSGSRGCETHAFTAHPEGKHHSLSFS
Outline: as §1

[8] = biological target: T8, MAPK13 (p38 delta) (Homo sapiens, UniProt O15264)
T8 construct: purchased ThermoFisher (SelectScreen, Z'-LYTE)
T8 sequence (O15264 1-365): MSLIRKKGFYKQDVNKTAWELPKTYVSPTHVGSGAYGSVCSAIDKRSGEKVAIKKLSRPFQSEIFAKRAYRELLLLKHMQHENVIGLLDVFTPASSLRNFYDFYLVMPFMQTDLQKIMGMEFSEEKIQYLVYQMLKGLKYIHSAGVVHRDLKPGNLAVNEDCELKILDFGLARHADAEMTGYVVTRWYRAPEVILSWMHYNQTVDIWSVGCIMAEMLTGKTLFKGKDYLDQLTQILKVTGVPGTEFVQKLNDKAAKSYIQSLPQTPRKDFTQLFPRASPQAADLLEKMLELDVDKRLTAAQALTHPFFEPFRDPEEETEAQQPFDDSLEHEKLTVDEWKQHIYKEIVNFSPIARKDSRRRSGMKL
Outline: as §1

T5 sequence (O75676 whole entry): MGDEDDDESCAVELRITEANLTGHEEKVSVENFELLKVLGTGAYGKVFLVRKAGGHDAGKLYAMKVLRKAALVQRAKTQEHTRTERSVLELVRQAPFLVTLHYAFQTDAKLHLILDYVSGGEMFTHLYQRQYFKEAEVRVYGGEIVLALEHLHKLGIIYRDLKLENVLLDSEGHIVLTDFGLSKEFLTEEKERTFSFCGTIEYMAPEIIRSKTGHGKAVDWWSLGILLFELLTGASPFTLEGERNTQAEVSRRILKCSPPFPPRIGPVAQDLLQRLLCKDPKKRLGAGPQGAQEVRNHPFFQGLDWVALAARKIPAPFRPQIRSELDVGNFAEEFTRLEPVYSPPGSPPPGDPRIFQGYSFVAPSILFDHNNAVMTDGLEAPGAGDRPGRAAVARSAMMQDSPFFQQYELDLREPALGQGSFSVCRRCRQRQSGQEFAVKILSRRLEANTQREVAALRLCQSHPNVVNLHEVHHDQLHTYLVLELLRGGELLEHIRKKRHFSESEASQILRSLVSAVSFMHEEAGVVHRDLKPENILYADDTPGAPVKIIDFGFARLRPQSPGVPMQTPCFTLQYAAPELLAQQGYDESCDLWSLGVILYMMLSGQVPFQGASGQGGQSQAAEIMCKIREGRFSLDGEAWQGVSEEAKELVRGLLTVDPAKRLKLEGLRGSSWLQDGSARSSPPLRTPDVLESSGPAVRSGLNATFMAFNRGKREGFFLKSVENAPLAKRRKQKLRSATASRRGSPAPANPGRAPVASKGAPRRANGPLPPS
T6 sequence (P43250 whole entry): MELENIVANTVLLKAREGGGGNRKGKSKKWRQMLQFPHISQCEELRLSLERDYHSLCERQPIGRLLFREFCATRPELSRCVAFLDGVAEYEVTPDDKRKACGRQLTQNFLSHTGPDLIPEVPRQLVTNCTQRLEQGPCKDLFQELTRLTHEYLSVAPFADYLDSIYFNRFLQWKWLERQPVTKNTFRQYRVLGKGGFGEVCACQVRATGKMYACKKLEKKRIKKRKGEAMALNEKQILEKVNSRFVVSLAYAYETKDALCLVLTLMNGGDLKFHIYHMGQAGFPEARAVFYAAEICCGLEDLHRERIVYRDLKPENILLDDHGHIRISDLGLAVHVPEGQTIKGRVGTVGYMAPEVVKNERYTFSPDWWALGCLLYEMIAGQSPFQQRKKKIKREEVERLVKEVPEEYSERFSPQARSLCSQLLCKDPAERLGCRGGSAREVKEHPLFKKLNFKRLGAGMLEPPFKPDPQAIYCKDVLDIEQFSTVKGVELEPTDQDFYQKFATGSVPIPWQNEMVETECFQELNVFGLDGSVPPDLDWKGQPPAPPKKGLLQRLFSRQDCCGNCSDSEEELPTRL
T2 sequence (Q9UK32 whole entry): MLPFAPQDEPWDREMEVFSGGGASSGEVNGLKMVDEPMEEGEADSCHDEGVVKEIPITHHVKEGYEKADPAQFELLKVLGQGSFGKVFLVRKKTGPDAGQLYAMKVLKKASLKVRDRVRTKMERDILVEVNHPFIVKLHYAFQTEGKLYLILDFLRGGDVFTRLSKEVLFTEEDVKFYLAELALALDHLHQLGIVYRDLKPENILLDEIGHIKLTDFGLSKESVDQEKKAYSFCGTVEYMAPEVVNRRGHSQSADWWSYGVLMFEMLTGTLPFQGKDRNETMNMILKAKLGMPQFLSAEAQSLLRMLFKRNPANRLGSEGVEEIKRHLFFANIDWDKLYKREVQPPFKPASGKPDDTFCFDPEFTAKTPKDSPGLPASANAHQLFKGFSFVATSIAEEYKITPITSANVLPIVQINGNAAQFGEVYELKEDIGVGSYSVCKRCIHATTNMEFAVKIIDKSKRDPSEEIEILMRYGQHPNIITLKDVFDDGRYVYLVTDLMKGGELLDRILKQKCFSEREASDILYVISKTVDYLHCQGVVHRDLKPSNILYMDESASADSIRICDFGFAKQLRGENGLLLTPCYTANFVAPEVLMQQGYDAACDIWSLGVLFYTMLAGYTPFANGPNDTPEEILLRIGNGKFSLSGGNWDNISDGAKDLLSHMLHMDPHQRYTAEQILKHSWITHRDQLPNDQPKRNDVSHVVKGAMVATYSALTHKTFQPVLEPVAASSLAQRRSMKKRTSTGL
T1 sequence (P48729 whole entry): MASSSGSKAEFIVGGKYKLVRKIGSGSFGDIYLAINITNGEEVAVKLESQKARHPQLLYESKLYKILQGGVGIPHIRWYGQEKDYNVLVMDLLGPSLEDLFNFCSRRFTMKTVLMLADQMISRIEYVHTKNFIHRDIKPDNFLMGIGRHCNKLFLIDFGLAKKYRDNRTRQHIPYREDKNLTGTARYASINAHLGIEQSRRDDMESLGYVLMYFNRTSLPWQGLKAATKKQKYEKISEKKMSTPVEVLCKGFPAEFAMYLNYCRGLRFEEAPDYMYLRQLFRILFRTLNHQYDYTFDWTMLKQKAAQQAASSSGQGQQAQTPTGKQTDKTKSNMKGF

Work on `Cc1ncc(-c2nc(Nc3ccc(C(=O)NCCN4CCCCC4)cc3)ncc2F)n1C(C)C` [Compound 3] yielded an inhibition at 10 µM [1] of 28%, an inhibition at 10 µM [2] of 82% and an inhibition at 10 µM [3] of 95%. It also gave an inhibition at 10 µM [4] of 97%, an inhibition at 10 µM [5] of 89% and an inhibition at 10 µM [6] of 53%. For the same compound, the inhibition at 10 µM [7] was 88% and the inhibition at 10 µM [8] was 65%.
`Cc1cc(Nc2nc(N)nn2C(=O)NC(C)C)ccc1Cl` [Compound 5] showed an inhibition at 10 µM [1] of 4%, an inhibition at 10 µM [2] of 58% and an inhibition at 10 µM [3] of -9%. It also gave an inhibition at 10 µM [4] of 8.53%, an inhibition at 10 µM [5] of 1.89% and an inhibition at 10 µM [6] of -0.556%. It also gave an inhibition at 10 µM [7] of 45% and an inhibition at 10 µM [8] of -0.07%.
“XMD8-92 [Compound 2, reference compound]” was tested, and the “CSNK1A1 (CK1 alpha 1) % Inhibition” value ([1]; 10 µM compound, ATP Km app) was 7%, the “RPS6KA6 (RSK4) % Inhibition” value ([2]; 10 µM compound, ATP Km app) was 72% and the “PRKG2 (PKG2) % Inhibition” value ([3]; 10 µM compound, ATP Km app) was 43%. The “MAP2K1 (MEK1) % Inhibition” value [4] was 17%, the “RPS6KA4 (MSK2) % Inhibition” value ([5]; 10 µM compound, ATP Km app) was 12% and the “GRK6 % Inhibition” value ([6]; 10 µM compound, ATP Km app) was 1.47%. The “JAK3 % Inhibition” value ([7]; 10 µM compound, ATP Km app) was 80% and the “MAPK13 (p38 delta) % Inhibition” value ([8]; 10 µM compound, ATP Km app) was 1.54%.

— publication PMC4854315, “Discovery of a novel allosteric inhibitor-binding site in ERK5: comparison with the canonical kinase hinge ATP-binding site” (Acta Crystallographica. Section D, Structural Biology, 2016)
